Drawing on US10081628B2, “Apoptosis-inducing agents for the treatment of cancer and immune and autoimmune diseases” (AbbVie Inc., priority 2013, dated 2018), this text covers Ki, EC50 and inhibition for 13 compounds.

The target in one experiment is GST-Bcl-2 (Homo sapiens, UniProt P10415). The experiment can be described thus: TR-FRET Bcl-2 binding assay (F-Bak peptide probe). The conditions noted are these: GST-Bcl-2 1 nM, F-Bak peptide probe 100 nM, Tb-anti-GST 1 nM; Wang's equation; '<' = below limit of detection. An outline of the steps:
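Competitive TR-FRET displacement of F-Bak peptide probe from GST-Bcl-2 detected with Tb-anti-GST antibody; compounds serially diluted in DMSO from 50 μM (2× starting concentration). Mixtures incubated 3 h at room temperature, read at 340 nm excitation with 520 and 495 nm emission. Ki derived by Wang's equation.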
(Time-resolved FRET reads energy transfer from a long-lived donor to a nearby acceptor.)

A further experiment concerns RS4;11 cells. Description: RS4;11 cell viability assay (CellTiter Glo). The format is cell-based. The settings on record: 10% human serum, 48 hours. An outline of the steps: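 Cells seeded at 50,000 per well and exposed to compounds for 48 h at 37 C, 5% CO2 in the presence of 10% human serum. Viability read by CellTiter Glo; EC50 derived from percentage of viable cells versus untreated controls.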
(Cellular ATP, detected with luciferase, serves as a proxy for viable cell number.)

The test system of a further experiment is lymphocytes. Description: Lymphocyte reduction in C57BL/6 mice. The format is in vivo. The conditions noted are these: Mus musculus, ip. On the procedure: An experiment was performed to evaluate the effect of Bcl-2 selective/Bcl-xL sparing compounds on immune cells and platelets, as evaluated in C57Bl/6 mice. Mice were treated four days with compounds (doses of 30 mg/kg, administered by intraperitoneal injection every day) and cell numbers were measured with a Cell Dyn hematology analyzer 24 hours after the first and last doses. Exposure of the compound (area under the curve) was calculated by using time points of 1, 6, 10 and 24 hours after the last dose.

The mark [1] stands for this setting: 30 mg/kg intraperitoneal every day for four days, 24 hours after the last dose, read-out: Lymphocyte reduction % inh. day 4.
The mark [2] stands for this setting: 30 mg/kg intraperitoneal every day, 24 hours after the first dose, read-out: Lymphocyte reduction % inh. day 1.

A word on the Ki: it is the dissociation constant of the complex between target and ligand, obtained from inhibition or displacement. Read a low Ki as a stronger hold on the target. The EC50 is the concentration needed to bring the measured effect to its halfway point. A lower EC50 goes with a more potent agent.

Where two headings read alike, the source gives them in different places. Where only a bound is given, the exact number is not on record here.

GST-Bcl-2, sequence (P10415 whole entry): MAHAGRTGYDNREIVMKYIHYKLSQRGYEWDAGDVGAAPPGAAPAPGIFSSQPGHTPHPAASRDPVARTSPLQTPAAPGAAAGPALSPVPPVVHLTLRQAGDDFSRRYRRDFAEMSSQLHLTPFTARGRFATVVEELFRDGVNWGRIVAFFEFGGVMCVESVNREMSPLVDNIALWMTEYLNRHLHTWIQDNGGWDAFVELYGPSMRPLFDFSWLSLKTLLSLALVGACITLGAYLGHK

`CC1(C)CCC(CN2CCN(c3ccc(C(=O)NS(=O)(=O)c4ccc(NCC5(O)COC5)c([N+](=O)[O-])c4)c(Oc4cnc5[nH]ccc5c4)c3)CC2)=C(c2ccc(Cl)cc2)C1` [Example 15, 4-(4-{[2-(4-chlorophenyl)-4,4-dimethylcyclohex-1-en-1-yl]methyl}piperazin-1-yl)-N-[(4-{[(3-hydroxyoxetan-3-yl)methyl]amino}-3-nitrophenyl)sulfonyl]-2-(1H-pyrrolo[2,3-b]pyridin-5-yloxy)benzamide] came in with a Ki on GST-Bcl-2 of under 0.0001 µM. This compound also showed an EC50 in the experiment on RS4;11 cells of 0.0093 µM. Also, the inhibition at 30 mg/kg in the experiment on lymphocytes (setting [1]) and in the experiment with lymphocytes (setting [2]) was under 15% in each case.
On GST-Bcl-2, `CC1(C)CCC(CN2CCN(c3ccc(C(=O)NS(=O)(=O)c4ccc(NN5CCOCC5)c([N+](=O)[O-])c4)c(Oc4cnc5[nH]ccc5c4)c3)CC2)=C(c2ccc(Cl)cc2)C1` [Example 16, 4-(4-{[2-(4-chlorophenyl)-4,4-dimethylcyclohex-1-en-1-yl]methyl}piperazin-1-yl)-N-{[4-(morpholin-4-ylamino)-3-nitrophenyl]sulfonyl}-2-(1H-pyrrolo[2,3-b]pyridin-5-yloxy)benzamide] returned a Ki of under 0.0001 µM. In the experiment with RS4;11 cells, the EC50 turned out to be 0.067 µM. Moreover, the inhibition at 30 mg/kg with lymphocytes (setting [1]) and in the experiment on lymphocytes (setting [2]) was under 15% in each case.
`CC1(C)CCC(CN2CCN(c3ccc(C(=O)NS(=O)(=O)c4ccc(NNC5CCOCC5)c([N+](=O)[O-])c4)c(Oc4cnc5[nH]ccc5c4)c3)CC2)=C(c2ccc(Cl)cc2)C1` [Example 18, 4-(4-{[2-(4-chlorophenyl)-4,4-dimethylcyclohex-1-en-1-yl]methyl}piperazin-1-yl)-N-({3-nitro-4-[2-(tetrahydro-2H-pyran-4-yl)hydrazinyl]phenyl}sulfonyl)-2-(1H-pyrrolo[2,3-b]pyridin-5-yloxy)benzamide] displayed a Ki on GST-Bcl-2 of under 0.0001 µM. In the experiment on RS4;11 cells, this compound displayed an EC50 of 0.047 µM. Moreover, the inhibition at 30 mg/kg with lymphocytes (setting [1]) was 25%; with lymphocytes (setting [2]), under 15%.
For `CC1(C)CCC(CN2CCN(c3ccc(C(=O)NS(=O)(=O)c4ccc(NC[C@H]5CCCOCC5)c([N+](=O)[O-])c4)c(Oc4cnc5[nH]ccc5c4)c3)CC2)=C(c2ccc(Cl)cc2)C1` [Example 20, 4-(4-{[2-(4-chlorophenyl)-4,4-dimethylcyclohex-1-en-1-yl]methyl}piperazin-1-yl)-N-[(3-nitro-4-{[(4S)-oxepan-4-ylmethyl]amino}phenyl)sulfonyl]-2-(1H-pyrrolo[2,3-b]pyridin-5-yloxy)benzamide], in that order: under 0.0001 µM, 0.019 µM, 57% and 20%.
For `CC1(C)CCC(CN2CCN(c3ccc(C(=O)NS(=O)(=O)c4ccc(NCC5(C)CCOCC5)c([N+](=O)[O-])c4)c(Oc4cnc5[nH]ccc5c4)c3)CC2)=C(c2ccc(Cl)cc2)C1` [Example 21, 4-(4-{[2-(4-chlorophenyl)-4,4-dimethylcyclohex-1-en-1-yl]methyl}piperazin-1-yl)-N-[(4-{[(4-methyltetrahydro-2H-pyran-4-yl)methyl]amino}-3-nitrophenyl)sulfonyl]-2-(1H-pyrrolo[2,3-b]pyridin-5-yloxy)benzamide], in that order: under 0.0001 µM, 0.019 µM, 61% and 61%.
For `CC1(C)CCC(CN2CCN(c3ccc(C(=O)NS(=O)(=O)c4ccc(NCC5CCSCC5)c([N+](=O)[O-])c4)c(Oc4cnc5[nH]ccc5c4)c3)CC2)=C(c2ccc(Cl)cc2)C1` [Example 22, 4-(4-{[2-(4-chlorophenyl)-4,4-dimethylcyclohex-1-en-1-yl]methyl}piperazin-1-yl)-N-({3-nitro-4-[(tetrahydro-2H-thiopyran-4-ylmethyl)amino]phenyl}sulfonyl)-2-(1H-pyrrolo[2,3-b]pyridin-5-yloxy)benzamide], in that order: under 0.0001 µM, 0.028 µM, 44% and 40%.
At GST-Bcl-2, `CC1(C)CCC(CN2CCN(c3ccc(C(=O)NS(=O)(=O)c4ccc(NCC5COC5)c([N+](=O)[O-])c4)c(Oc4cnc5[nH]ccc5c4)c3)CC2)=C(c2ccc(Cl)cc2)C1` [Example 23, 4-(4-{[2-(4-chlorophenyl)-4,4-dimethylcyclohex-1-en-1-yl]methyl}piperazin-1-yl)-N-({3-nitro-4-[(oxetan-3-ylmethyl)amino]phenyl}sulfonyl)-2-(1H-pyrrolo[2,3-b]pyridin-5-yloxy)benzamide] gave a Ki of under 0.0001 µM. Further, in the experiment on RS4;11 cells, a half-maximal response (EC50) required 0.023 µM. Further, the inhibition at 30 mg/kg with lymphocytes (setting [1]) is 15%; with lymphocytes (setting [2]), 37%.
As to `C[C@@H]1CO[C@H](CNc2ccc(S(=O)(=O)NC(=O)c3ccc(N4CCN(CC5=C(c6ccc(Cl)cc6)CC(C)(C)CC5)CC4)cc3Oc3cnc4[nH]ccc4c3)cc2[N+](=O)[O-])CO1` [Example 24, 4-(4-{[2-(4-chlorophenyl)-4,4-dimethylcyclohex-1-en-1-yl]methyl}piperazin-1-yl)-N-{[4-({[(2R,5R)-5-methyl-1,4-dioxan-2-yl]methyl}amino)-3-nitrophenyl]sulfonyl}-2-(1H-pyrrolo[2,3-b]pyridin-5-yloxy)benzamide], on GST-Bcl-2, the Ki is under 0.0001 µM. Further, the EC50 in the experiment with RS4;11 cells was found to be 0.014 µM. The inhibition at 30 mg/kg with lymphocytes (setting [1]) worked out at 58%; with lymphocytes (setting [2]) it was 48%.
`CC1(C)CCC(CN2CCN(c3ccc(C(=O)NS(=O)(=O)c4ccc(NCC5(O)COCCOC5)c([N+](=O)[O-])c4)c(Oc4cnc5[nH]ccc5c4)c3)CC2)=C(c2ccc(Cl)cc2)C1` [Example 25, 4-(4-{[2-(4-chlorophenyl)-4,4-dimethylcyclohex-1-en-1-yl]methyl}piperazin-1-yl)-N-[(4-{[(6-hydroxy-1,4-dioxepan-6-yl)methyl]amino}-3-nitrophenyl)sulfonyl]-2-(1H-pyrrolo[2,3-b]pyridin-5-yloxy)benzamide]: the Ki at GST-Bcl-2 is under 0.0001 µM. Also, the EC50 in the experiment with RS4;11 cells was 0.036 µM. Also, the values for the inhibition at 30 mg/kg with lymphocytes (setting [1]) and in the experiment on lymphocytes (setting [2]) were 15% and 29%, respectively.
For `CC1(C)CCC(CN2CCN(c3ccc(C(=O)NS(=O)(=O)c4ccc(NCC5(O)CCC(F)(F)CC5)c([N+](=O)[O-])c4)c(Oc4cnc5[nH]ccc5c4)c3)CC2)=C(c2ccc(Cl)cc2)C1` [Example 26, 4-(4-{[2-(4-chlorophenyl)-4,4-dimethylcyclohex-1-en-1-yl]methyl}piperazin-1-yl)-N-[(4-{[(4,4-difluoro-1-hydroxycyclohexyl)methyl]amino}-3-nitrophenyl)sulfonyl]-2-(1H-pyrrolo[2,3-b]pyridin-5-yloxy)benzamide], in that order: under 0.0001 µM, 0.044 µM, 23% and 38%.
As to `COC1(CNc2ccc(S(=O)(=O)NC(=O)c3ccc(N4CCN(CC5=C(c6ccc(Cl)cc6)CC(C)(C)CC5)CC4)cc3Oc3cnc4[nH]ccc4c3)cc2[N+](=O)[O-])CCOCC1` [Example 27, 4-(4-{[2-(4-chlorophenyl)-4,4-dimethylcyclohex-1-en-1-yl]methyl}piperazin-1-yl)-N-[(4-{[(4-methoxytetrahydro-2H-pyran-4-yl)methyl]amino}-3-nitrophenyl)sulfonyl]-2-(1H-pyrrolo[2,3-b]pyridin-5-yloxy)benzamide], at GST-Bcl-2, the Ki was under 0.0001 µM. The same compound had an EC50 in the experiment with RS4;11 cells of 0.097 µM. Further, the inhibition at 30 mg/kg was 21% in the experiment on lymphocytes (setting [1]) and 23% in the experiment with lymphocytes (setting [2]).
For `C[C@@H]1C[C@H](CNc2ccc(S(=O)(=O)NC(=O)c3ccc(N4CCN(CC5=C(c6ccc(Cl)cc6)CC(C)(C)CC5)CC4)cc3Oc3cnc4[nH]ccc4c3)cc2[N+](=O)[O-])C[C@H](C)O1` [Example 31, 4-(4-{[2-(4-chlorophenyl)-4,4-dimethylcyclohex-1-en-1-yl]methyl}piperazin-1-yl)-N-{[4-({[(2R,4R,6S)-2,6-dimethyltetrahydro-2H-pyran-4-yl]methyl}amino)-3-nitrophenyl]sulfonyl}-2-(1H-pyrrolo[2,3-b]pyridin-5-yloxy)benzamide], in that order: under 0.0001 µM, 0.016 µM, 55% and 53%.
For `CC1(C)CCC(CN2CCN(c3ccc(C(=O)NS(=O)(=O)c4ccc(NC[C@@H]5CCOC(C)(C)C5)c([N+](=O)[O-])c4)c(Oc4cnc5[nH]ccc5c4)c3)CC2)=C(c2ccc(Cl)cc2)C1` [Example 34, 4-(4-{[2-(4-chlorophenyl)-4,4-dimethylcyclohex-1-en-1-yl]methyl}piperazin-1-yl)-N-{[4-({[(4R)-2,2-dimethyltetrahydro-2H-pyran-4-yl]methyl}amino)-3-nitrophenyl]sulfonyl}-2-(1H-pyrrolo[2,3-b]pyridin-5-yloxy)benzamide], in that order: under 0.0001 µM, 0.013 µM, 61% and under 15%.
